Patent US5219884A, “Immunosuppressant” (Taito Co., Ltd., priority 1990, dated 1993)
Like-named read-outs stand apart in the source and are kept apart here.

Tests used:
Assay type in all cases: cell-based
[1] = tested on: IL2 production in mouse allogenic MLC; assay: suppression of IL2 production in mouse allogenic MLC; details: for inhibition at 0.01 µg/mL / inhibition at 0.1 µg/mL / inhibition at 1 µg/mL / inhibition at 10 µg/mL: Mus musculus, 48 h, read-out: Suppression
Procedure: Mouse allogenic MLC was carried out as follows:
The respondor cell suspension and the stimulator cell suspension (0.5 ml each) prepared in the same way as in Experimental Example 1 together with 1 ml of test substance were added to 24-well multidishes, and cultured at 37° C. in an atmosphere of 5% carbon dioxide for 2 days. After termination of the culture, the supernatant was collected and used as the supernatant of mouse allogenic MLC.
(§1) The IL2 activity in the supernatants of mouse allogenic MLC and the supernatants of PHA-stimulated mouse spleen cells culture was assayed as follows: IL2-dependent mouse cell line CTLL-2 cells were suspended in the RPMI1640 culture medium supplemented with 30% FCS to the concentration of 10^5 cells/ml, and 100 μl of the suspension was added to each well of 96-well microculture plates in which 100 μl of the supernatant of the MLC described above had been placed. After culturing at 37° C. in an atmosphere of 5% carbon dioxide for 20 hours, 0.5 μCi/well of ^3 H-thymidine was added, and incubated for 4 hours under the same conditions. After termination of the culture, the cells were harvested by a cell harvester, and the radioactivity incorporated into the cells was measured by a liquid scintillation counter. IL2 activity was expressed in U/ml as the titer at various concentrations at which the ^3 H-thymidine incorporation was 50% of the maximum.

[2] = tested on: mouse spleen cells stimulated with pokeweed mitogen (PWM); assay: suppression of blastogenic response of mouse spleen cells by PWM; details: for inhibition at 0.1 µg/mL / inhibition at 0.01 µg/mL / inhibition at 1 µg/mL: Mus musculus, 76 h; for inhibition at 0.1 µg/mL: read-out: Suppression
Procedure: The effect on the mouse blastogenic response of mouse spleen cells stimulated with phytohemagglutinin (PHA) or with pokeweed mitogen (PWM) was examined as follows:
The spleen was resected from 5- to 8-week-old male […] BALB/c mice, and single cell suspension of spleen cells was prepared by using the RPMI1640 culture medium supplemented with 5% FCS. After hemolytic treatment, the concentration of the suspension was adjusted to 5×10^6 cells/ml by using the RPMI1640 culture medium supplemented with 10^-4 M 2-mercaptoethanol and 20% FCS, to which PHA or PWM was added. One hundred μl of the cell suspension was added to each well of 96-well microculture plates to which 100 μl per well of the test solution had been added (5×10^5 mouse spleen cells per well). After culturing at 37° C. in an atmosphere of 5% carbon dioxide for 72 hours, 0.5 μCi/well of ^3 H-thymidine was added and cultured under the same conditions for further 4 hours. After termination of the culture, the cells were harvested by a cell harvester, and the radioactivity incorporated into the cells was measured by a liquid scintillation counter, which was used as the index of blastogenic response of mouse spleen cells.

[3] = tested on: alloreactive cytotoxic T cells (EL4 target cells); assay: suppression of induction of alloreactive cytotoxic T cells in mouse allogenic MLC (51Cr release)
Procedure: The spleen cells suspension, 0.5 ml, (2×10^7 cells/ml) of BALB/c mouse (H-2^d) prepared in the same way as in Experimental Example 1, 0.5 ml of a suspension of mitomycin C-treated C57BL/6 mouse (H-2^b) spleen cells (2×10^7 cell/ml) and 1.0 ml of the test substance were added to 24-well multidishes, and cultured at 37° C. in an atmosphere of 5% carbon dioxide for 6 days.
After termination of the culture, the cells were harvested by centrifugation, and the concentration of the cell suspension was adjusted to 5×10^6 -6.25×10^5 cells/ml by using the RPMI1640 culture medium supplemented with 10% FCS, and used as the effector cell suspension.
The target cells used were leukemia cells EL4 from the syngenic (H-2^b) C57BL/b mouse as used for preparation of the stimulator cells. By incubating 10^6 EL4 cells in the presence of 100 μCi of Na2^51 CrO4 (1 mCi/ml) at 37° C. for 1 hour to incorporate ^51 Cr into the cytoplasm. The cell were washed, adjusted to the concentration of 10^4 cells/ml and used as the target cell suspension.
For the assay of the cytotoxic activity, 0.1 ml of the effector cell suspension and 0.1 ml of the target cell suspension were added to 96-well flat-bottomed plates, and cultured at 37° C. for 4 hours. The amount of ^51 Cr released into the supernatant was determined and the cytotoxic activity was calculated by the following formula. [formula]

[4] = tested on: IL2 production in PHA-stimulated mouse spleen cells; assay: suppression of IL2 production in PHA-stimulated mouse spleen cells; details: for inhibition at 0.01 µg/mL / inhibition at 0.1 µg/mL / inhibition at 1 µg/mL / inhibition at 10 µg/mL: Mus musculus, 24 h, read-out: Suppression
Procedure: Culture of PHA-stimulated mouse spleen cells was carried out as follows: PHA (1/100 dilution) was added to the BALB/c mouse spleen cells suspension prepared in the same way as in Experimental Example 4. The cell suspension (1 ml) and 1 ml of the test substance were added to 24-well multidishes, and cultured at 37° C. in an atmosphere of 5% carbon dioxide for 24 hours. After termination of the culture, the supernatant was collected and used as the supernatant of PHA-stimulated cultures.
as §1

[5] = tested on: IL3 production in mouse allogenic MLC; assay: suppression of IL3 production in mouse allogenic MLC; details: for inhibition at 0.01 µg/mL / inhibition at 0.1 µg/mL / inhibition at 1 µg/mL / inhibition at 10 µg/mL: Mus musculus, read-out: Suppression
Procedure: The supernatant of mouse allogenic MLC and the supernatant of PHA-stimulated mouse spleen cells culture were prepared in the same manner as in Experimental Example 6.
The IL3 activity in the supernatant described above was assayed as follows: IL3-dependent mouse cell line FDC-P2 cells were suspended in the RPMI1640 culture medium supplemented with 10% FCS to the concentration of 10^5 cells/ml, and 100 μl of the suspension was added to each well of 96-well microculture plates in which 100 μl per well of the two-fold serial dilutions of the supernatant described above had been placed. After culturing at 37° C. in an atmosphere of 5% carbon dioxide for 20 hours, 0.5 μCi/well of ^3 H-thymidine was added, and cultured for further 4 hours under the same conditions. After termination of the culture, the cells were harvested by a cell harvester, and the radioactivity incorporated into the cells was measured by a liquid scintillation counter. The IL3 activity was expressed in U/ml as the titer at the concentrations at which the amount of ^3 H-thymidine incorporated was 50% of the maximum.

[6] = 0.1 μg/ml, effector:target 25:1
[7] = 0.1 μg/ml, effector:target 50:1
[8] = 0.1 μg/ml, effector:target 100:1

## CCCCCCC(=O)CCCCCC/C=C/CC(O)C(O)C(N)(CO)C(=O)O (stereo not drawn) [Example 1]
[1]; 0.01 μg/ml
  IL2 activity: 4.0 U/ml
[1]; 0.1 μg/ml
  IL2 activity: 2.0 U/ml
[1]; 1 μg/ml
  IL2 activity: 1.1 U/ml
[1]; 10 μg/ml
  IL2 activity: < 1 U/ml
[1]
  inhibition at 0.01 µg/mL: 59.2%
  inhibition at 0.1 µg/mL: 79.6%
  inhibition at 1 µg/mL: 88.8%
  inhibition at 10 µg/mL: > 90%
[2]
  inhibition at 0.1 µg/mL: 73.2%
[2]; PWM (1/100), 0.01 μg/ml
  inhibition at 0.01 µg/mL: 61%
  3H-thymidine uptake: 13499 cpm
[2]; PWM (1/100), 1 μg/ml
  inhibition at 1 µg/mL: 84.5%
  3H-thymidine uptake: 6529 cpm
[2]; PWM (1/100), 0.1 μg/ml
  3H-thymidine uptake: 9895 cpm
[3]; 0.01 μg/ml, effector:target 25:1
  Amount of 51Cr release: 816 cpm
[3]; 0.01 μg/ml, effector:target 50:1
  Amount of 51Cr release: 783 cpm
[3]; 0.01 μg/ml, effector:target 100:1
  Amount of 51Cr release: 808 cpm
[3]; [6]
  Amount of 51Cr release: 764 cpm
[3]; [7]
  Amount of 51Cr release: 773 cpm
[3]; [8]
  Amount of 51Cr release: 771 cpm
[4]; 0.01 μg/ml
  IL2 activity: 6.5 U/ml
[4]; 0.1 μg/ml
  IL2 activity: 2.5 U/ml
[4]; 1 μg/ml
  IL2 activity: 1.1 U/ml
[4]; 10 μg/ml
  IL2 activity: < 1 U/ml
[4]
  inhibition at 0.01 µg/mL: 46.3%
  inhibition at 0.1 µg/mL: 79.3%
  inhibition at 1 µg/mL: 90.9%
  inhibition at 10 µg/mL: > 92%
[5]; 0.01 μg/ml
  IL3 activity: 13.9 U/ml
[5]; 0.1 μg/ml
  IL3 activity: 12.1 U/ml
[5]; 1 μg/ml
  IL3 activity: 9.8 U/ml
[5]; 10 μg/ml
  IL3 activity: < 2 U/ml
[5]
  inhibition at 0.01 µg/mL: 62.2%
  inhibition at 0.1 µg/mL: 67.1%
  inhibition at 1 µg/mL: 73.4%
  inhibition at 10 µg/mL: > 95%

## CCCCCCC(=O)CCCCCC/C=C/CC1OC(=O)C(N)(CO)C1O (stereo not drawn) [Example 4]
[1]; 0.01 μg/ml
  IL2 activity: 4.0 U/ml
  inhibition at 0.01 µg/mL: 59.2%
[1]; 0.1 μg/ml
  IL2 activity: 1.7 U/ml
  inhibition at 0.1 µg/mL: 82.7%
[1]; 1 μg/ml
  IL2 activity: < 1 U/ml
  inhibition at 1 µg/mL: > 90%
[1]; 10 μg/ml
  IL2 activity: < 1 U/ml
  inhibition at 10 µg/mL: > 90%
[2]; PWM (1/100), 0.01 μg/ml
  inhibition at 0.01 µg/mL: 41.4%
  3H-thymidine uptake: 19335 cpm
[2]; PWM (1/100), 0.1 μg/ml
  inhibition at 0.1 µg/mL: 75.1%
  3H-thymidine uptake: 9325 cpm
[2]; PWM (1/100), 1 μg/ml
  inhibition at 1 µg/mL: 77.1%
  3H-thymidine uptake: 8712 cpm
[3]; [6]
  Amount of 51Cr release: 767 cpm
  Cytotoxic activity: 0%
[3]; [7]
  Amount of 51Cr release: 780 cpm
  Cytotoxic activity: 0%
[3]; [8]
  Amount of 51Cr release: 761 cpm
  Cytotoxic activity: 0%
[4]; 0.01 μg/ml
  IL2 activity: 4.9 U/ml
  inhibition at 0.01 µg/mL: 59.5%
[4]; 0.1 μg/ml
  IL2 activity: 2.6 U/ml
  inhibition at 0.1 µg/mL: 78.5%
[4]; 1 μg/ml
  IL2 activity: < 1 U/ml
  inhibition at 1 µg/mL: > 92%
[4]; 10 μg/ml
  IL2 activity: < 1 U/ml
  inhibition at 10 µg/mL: > 92%
[5]; 0.01 μg/ml
  IL3 activity: 26.0 U/ml
[5]; 0.1 μg/ml
  IL3 activity: 16.0 U/ml
  inhibition at 0.1 µg/mL: 56.5%
[5]; 1 μg/ml
  IL3 activity: 8.6 U/ml
  inhibition at 1 µg/mL: 76.6%
[5]; 10 μg/ml
  IL3 activity: 6.1 U/ml
  inhibition at 10 µg/mL: 83.4%
[5]
  inhibition at 0.01 µg/mL: 29.3%
